The structures appear in SMILES notation. Values after ≈ are worked out from the molar mass of the structure shown.

This test has as its system Mycobacterium tuberculosis H37Rv. Briefly: GSK_TB: Minimum inhibitory concentration against isoniazid and rifampicin resistant clinical isolates of Mycobacterium tuberculosis. The note with it: ATCC25618. The class given is functional.
`CNc1snc(C)c1C(=O)NCCOc1ccc(OC)cc1`: the MIC stood at 0.9 µM (≈ 0.289 µg/mL). `COc1ccc(-c2nnc3sc(Cc4csc(C)n4)nn23)cc1`: the minimal inhibitory concentration (MIC) turned out to be 1.3 µM (≈ 0.446 µg/mL). Next, `Nc1ccc(C(O)CNCCc2ccccc2)cc1O` (centres undefined): 1.3 µM (≈ 0.354 µg/mL); `O=C(Nc1nc2c(s1)CCCc1cccnc1-2)c1ccccc1C(F)(F)F`: 1.3 µM (≈ 0.506 µg/mL). In turn, `NC(=O)c1ccc(CN(C2CC2)S(=O)(=O)c2ccccc2F)cc1` displayed an MIC of 5 µM (≈ 1.74 µg/mL).

For the molecule `CN(Cc1ccc(Cl)cc1)C(=O)CCc1nc2ccccc2oc1=O`, the MIC stood at 1.3 µM (≈ 0.464 µg/mL). Next, `Clc1nnc(N2CCCC2)c2ccccc12`: 0.6 µM (≈ 0.14 µg/mL); `CCOCn1ccc(NS(=O)(=O)c2ccc(N)cc2)nc1=O`: 20 µM (≈ 6.49 µg/mL); `COc1ccc(CCNC(=O)C2(n3cnnn3)CCCCC2)cc1`: 2.5 µM (≈ 0.824 µg/mL).

By MIC is commonly meant the smallest concentration in the dilution series that meets the test's criterion for growth inhibition. A higher MIC goes with a less susceptible organism.

Source of the values: ChEMBL document CHEMBL3637782, “GSK Tres Cantos Follow-up TB Screening Data” (2016).
